# Patent US20230212122A1, “MITOCHONDRIAL TARGETING COMPOUNDS FOR THE TREATMENT OF ASSOCIATED DISEASES” (The Regents of the University of Michigan, priority 2020, published 2023)
# System: UM16 cell line
# Assay: GSEA of proteomics data ([…], KEGG pathways)
# Assay type: cell-based
# Conditions: 5 μM, 24 hours
# Excerpt: Several proteins participating in energy metabolism were dramatically changed.
# [1] = HALLMARK_IL2_STAT5_SIGNALING, FDR q-val 0.552
# [2] = HALLMARK_MITOTIC_SPINDLE, FDR q-val 0.529
# [3] = HALLMARK_MYC_TARGETS_V1, FDR q-val 0.006
# [4] = HALLMARK_MYC_TARGETS_V2, FDR q-val 0.264
# [5] = HALLMARK_MYOGENESIS, FDR q-val 0.467
# [6] = HALLMARK_OXIDATIVE_PHOSPHORYLATION, FDR q-val 0.711
# [7] = HALLMARK_P53_PATHWAY, FDR q-val 0.146
# [8] = HALLMARK_PEROXISOME, FDR q-val 0.645
# [9] = HALLMARK_PROTEIN_SECRETION, FDR q-val 0.862
# [10] = HALLMARK_SPERMATOGENESIS, FDR q-val 0.851
# [11] = HALLMARK_TGF_BETA_SIGNALING, FDR q-val 0.771
# [12] = HALLMARK_TNFA_SIGNALING_VIA_NFKB, FDR q-val 0.457
# [13] = HALLMARK_UNFOLDED_PROTEIN_RESPONSE, FDR q-val 0.070
# [14] = HALLMARK_UV_RESPONSE_DN, FDR q-val 0.510
# [15] = HALLMARK_XENOBIOTIC_METABOLISM, FDR q-val 0.488
# [16] = KEGG_ADIPOCYTOKINE_SIGNALING_PATHWAY, FDR q-val 0.903
# [17] = KEGG_ARGININE_AND_PROLINE_METABOLISM, FDR q-val 0.668
# [18] = KEGG_B_CELL_RECEPTOR_SIGNALING_PATHWAY, FDR q-val 0.813
# [19] = KEGG_CARDIAC_MUSCLE_CONTRACTION, FDR q-val 0.900
# [20] = KEGG_CYTOSOLIC_DNA_SENSING_PATHWAY, FDR q-val 0.907
# [21] = KEGG_FC_EPSILON_RI_SIGNALING_PATHWAY, FDR q-val 0.825
# [22] = KEGG_GAP_JUNCTION, FDR q-val 0.898
# [23] = KEGG_GLYCEROLIPID_METABOLISM, FDR q-val 0.663
# [24] = KEGG_GLYCOLYSIS_GLUCONEOGENESIS, FDR q-val 0.889
# [25] = KEGG_INOSITOL_PHOSPHATE_METABOLISM, FDR q-val 0.852
# [26] = KEGG_INSULIN_SIGNALING_PATHWAY, FDR q-val 0.872
# [27] = KEGG_LYSINE_DEGRADATION, FDR q-val 0.914
# [28] = KEGG_MELANOGENESIS, FDR q-val 0.638
# [29] = KEGG_NON_SMALL_CELL_LUNG_CANCER, FDR q-val 0.894
# [30] = KEGG_NUCLEOTIDE_EXCISION_REPAIR, FDR q-val 0.829
# [31] = KEGG_PATHWAYS_IN_CANCER, FDR q-val 0.858
# [32] = KEGG_PEROXISOME, FDR q-val 0.839
# [33] = KEGG_PROP_ANOATE_METABOLISM, FDR q-val 0.889
# [34] = KEGG_PURINE_METABOLISM, FDR q-val 0.909
# [35] = KEGG_VIRAL_MYOCARDITIS, FDR q-val 0.832
structure (smiles),measurement,setting,value
"CCOC(=O)[C@@H]1CCCN(S(=O)(=O)c2ccc(S(=O)(=O)N(CC)CC)cc2)C1 [DX2-201, ethyl (R)-1-((4-(N,N-diethylsulfamoyl)phenyl)sulfonyl)piperidine-3-carboxylate]",NES,"HALLMARK_HYPOXIA, FDR q-val 0.003",1.851
same,ES,[1],0.384
same,NES,[1],1.176
same,ES,[2],0.348
same,NES,[2],1.170
same,ES,[3],−0.424
same,NES,[3],−1.975
same,ES,[4],−0.329
same,NES,[4],−1.215
same,ES,[5],−0.285
same,NES,[5],−1.077
same,ES,[6],−0.214
same,NES,[6],−0.938
same,ES,[7],−0.323
same,NES,[7],−1.338
same,ES,[8],0.347
same,NES,[8],1.037
same,ES,[9],−0.207
same,NES,[9],−0.842
same,ES,[10],−0.229
same,NES,[10],−0.803
same,ES,[11],−0.296
same,NES,[11],−0.944
same,ES,[12],0.448
same,NES,[12],1.335
same,ES,[13],−0.372
same,NES,[13],−1.517
same,ES,[14],0.433
same,NES,[14],1.256
same,ES,[15],0.393
same,NES,[15],1.244
same,ES,[16],0.390
same,NES,[16],1.046
same,NES,"KEGG_ANTIGEN_PROCESSING_AND_PRESENTATION, FDR q-val 0.792",−0.917
same,ES,[17],0.543
same,NES,[17],1.389
same,NES,"KEGG_BASAL_TRANSCRIPTION_FACTORS, FDR q-val 0.687",−1.121
same,ES,[18],0.504
same,NES,[18],1.432
same,ES,[19],0.469
same,NES,[19],1.177
same,NES,"KEGG_CELL_CYCLE, FDR q-val 0.828",−0.995
same,NES,"KEGG_CITRATE_CYCLE_TCA_CYCLE, FDR q-val 0.422",−1.416
same,ES,[20],0.469
same,NES,[20],1.166
same,NES,"KEGG_DNA_REPLICATION, FDR q-val 0.844",−0.919
same,NES,"KEGG_ERBB_SIGNALING_PATHWAY, FDR q-val 0.821",1.410
same,ES,[21],0.593
same,NES,[21],1.623
same,ES,[22],0.386
same,NES,[22],1.041
same,ES,[23],0.572
same,NES,[23],1.376
same,ES,[24],0.394
same,NES,[24],1.086
same,ES,[25],0.520
same,NES,[25],1.277
same,ES,[26],0.352
same,NES,[26],1.077
same,ES,[27],0.381
same,NES,[27],1.007
same,ES,[28],0.534
same,NES,[28],1.369
same,ES,[29],0.415
same,NES,[29],1.092
same,ES,[30],0.469
same,NES,[30],1.271
same,NES,"KEGG_N_GLYCAN_BIOSYNTHESIS, FDR q-val 0.658",−1.160
same,NES,"KEGG_PARKINSONS_DISEASE, FDR q-val 0.702",−1.180
same,ES,[31],0.324
same,NES,[31],1.074
same,ES,[32],0.459
same,NES,[32],1.302
same,ES,[33],0.424
same,NES,[33],1.079
same,NES,"KEGG_PROTEASOME, FDR q-val 0.605",−1.425
same,NES,"KEGG_PROTEIN_EXPORT, FDR q-val 0.625",−1.116
same,ES,[34],0.331
same,NES,[34],1.023
same,NES,"KEGG_RIBOSOME, FDR q-val 0.003",−2.132
same,NES,"KEGG_RNA_DEGRADATION, FDR q-val 0.672",−1.228
same,NES,"KEGG_SPLICEOSOME, FDR q-val 0.541",−1.319
same,NES,"KEGG_VIBRIO_CHOLERAE_INFECTION, FDR q-val 0.754",−1.044
same,ES,[35],0.497
same,NES,[35],1.292
